In brackets after ≈: the same amount, converted by molar mass.
Columns and labels:
His-tagged GST = target: T1, His-tagged GST (Schistosoma japonicum, UniProt P08515); assay: HTRF counter-screen with His-GST; conditions: 100 nM His-GST
T1 construct: purchased Millipore #12-523
Experimental: Two different HTRF counter-screens were used to identify false positive hits. The two interacting proteins GST-IQGAP1-C and His-Cdc42-Q61L were replaced with His-tagged GST or Cdc42-Q61L containing GST at the N-terminus and His at the C-terminus (GST-Cdc42-Q61L-His).
The second counter-screen was performed with 100 nM His-tagged GST following the protocol described above.
Supplementary Table S2: Counter-screening HTRF protocol.
Step Parameter Value Description
1a Protein 4 µL 100 nM His-GST (final concentration), diluted in
1b Controls 4 µL Column 2: GST-IQGAP1-C protein only [1.5nM] final
Column 3: pre-mixed proteins (regular assay
2 Compounds 23 nL Selected compounds were pin-transferred from DMSO
HTRF α-His-XL (5 ng/µL, 3X working concentration) +
3 antibodies 2 µL α-GST-K (0.7 ng/µL 3X working concentration),
pre-mix mixed in binding buffer
4 Time 3 Incubation (ambient temperature)
5 Reagent 1 µL 2.8 M KF (7x)
6 Detector HTRF Envision plate reader (excitation: 340 nm, emission: […]

[1] = Metabolic half-life in rat liver microsome lysates; type: in vitro ADME; conditions: minimum detectable half-life of 1 min; for half-life: read-out: T1/2 metabolic half-life
[2] = pION µSOL kinetic aqueous solubility; type: physicochemical; conditions: pION µSOL assay, pH 7.4; for solubility kinetic: aqueous medium
[3] = target: T2, endogenous IQGAP1/Cdc42 interaction (Homo sapiens, UniProt P46940+P60953); assay: Immunoprecipitation of endogenous IQGAP1 and co-precipitated Cdc42 in HEK293 cell lysates; type: binding; conditions: DMSO = 100% binding
T2 construct: endogenous in cells; host or cells: HEK293 cell lysate
T2 sequence (P46940 2-1657 limits assumed): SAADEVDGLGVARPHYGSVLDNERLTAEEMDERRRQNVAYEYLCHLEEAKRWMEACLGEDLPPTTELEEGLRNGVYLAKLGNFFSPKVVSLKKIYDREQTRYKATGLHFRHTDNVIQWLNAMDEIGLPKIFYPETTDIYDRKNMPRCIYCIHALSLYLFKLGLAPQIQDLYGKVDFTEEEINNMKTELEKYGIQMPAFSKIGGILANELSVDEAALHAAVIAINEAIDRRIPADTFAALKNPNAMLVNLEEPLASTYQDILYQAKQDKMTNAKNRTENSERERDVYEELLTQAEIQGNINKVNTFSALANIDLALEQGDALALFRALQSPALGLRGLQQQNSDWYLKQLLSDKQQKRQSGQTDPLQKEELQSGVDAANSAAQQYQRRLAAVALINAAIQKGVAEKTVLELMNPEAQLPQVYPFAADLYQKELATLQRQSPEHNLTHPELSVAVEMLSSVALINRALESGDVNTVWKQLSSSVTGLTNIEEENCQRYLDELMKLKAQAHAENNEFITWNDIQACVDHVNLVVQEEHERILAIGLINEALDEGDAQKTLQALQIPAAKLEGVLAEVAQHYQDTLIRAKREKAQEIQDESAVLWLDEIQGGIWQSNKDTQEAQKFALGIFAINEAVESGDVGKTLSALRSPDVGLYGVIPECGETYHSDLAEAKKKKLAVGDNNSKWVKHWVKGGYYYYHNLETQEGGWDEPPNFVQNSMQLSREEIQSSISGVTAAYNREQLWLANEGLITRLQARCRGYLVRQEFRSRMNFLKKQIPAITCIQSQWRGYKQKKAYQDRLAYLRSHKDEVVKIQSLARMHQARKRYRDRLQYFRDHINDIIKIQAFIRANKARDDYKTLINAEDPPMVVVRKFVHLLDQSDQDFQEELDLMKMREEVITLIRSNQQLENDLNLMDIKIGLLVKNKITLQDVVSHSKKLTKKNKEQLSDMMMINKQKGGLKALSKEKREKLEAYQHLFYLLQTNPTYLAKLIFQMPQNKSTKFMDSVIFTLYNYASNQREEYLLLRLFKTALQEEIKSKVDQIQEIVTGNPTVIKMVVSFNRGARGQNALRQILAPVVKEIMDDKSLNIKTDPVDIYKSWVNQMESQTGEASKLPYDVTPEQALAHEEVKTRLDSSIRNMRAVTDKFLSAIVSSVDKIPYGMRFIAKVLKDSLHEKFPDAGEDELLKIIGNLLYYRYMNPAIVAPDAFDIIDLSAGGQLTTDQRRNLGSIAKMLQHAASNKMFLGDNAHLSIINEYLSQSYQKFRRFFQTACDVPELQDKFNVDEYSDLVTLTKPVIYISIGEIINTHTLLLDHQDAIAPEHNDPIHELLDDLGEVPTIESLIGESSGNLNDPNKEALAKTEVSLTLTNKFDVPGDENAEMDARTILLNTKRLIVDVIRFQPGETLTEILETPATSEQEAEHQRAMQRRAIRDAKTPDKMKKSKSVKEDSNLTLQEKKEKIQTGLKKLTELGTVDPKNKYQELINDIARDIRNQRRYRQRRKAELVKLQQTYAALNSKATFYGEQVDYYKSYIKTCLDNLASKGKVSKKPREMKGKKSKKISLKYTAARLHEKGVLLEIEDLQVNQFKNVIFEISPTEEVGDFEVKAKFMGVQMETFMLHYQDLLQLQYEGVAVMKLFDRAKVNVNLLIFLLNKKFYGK
T2 sequence (P60953 1-188 limits assumed): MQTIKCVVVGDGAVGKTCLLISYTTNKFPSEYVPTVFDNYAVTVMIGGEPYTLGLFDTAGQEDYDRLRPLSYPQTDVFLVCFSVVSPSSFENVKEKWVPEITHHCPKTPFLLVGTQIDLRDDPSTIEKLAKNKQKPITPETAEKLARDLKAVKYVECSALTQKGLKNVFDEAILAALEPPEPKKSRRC
Experimental: Each compound was added to lysates from HEK293 cells at a final concentration of 50 µM and endogenous IQGAP1 was immunoprecipitated. DMSO alone was used as the negative control (100% binding).
HEK293 cells were plated in 10-cm dishes to reach 80% confluence. The following day, the cells were washed with ice-cold phosphate-buffered saline (PBS) and lysed with 500 µl of Buffer A (50 mM Tris–HCl, pH 7.4, 150 mM NaCl, and 1% Triton X-100) supplemented with complete protease and phosphatase inhibitors (Roche, Mannheim, Germany). Lysates were subjected to two rounds of sonication for 10 s each, and insoluble material was precipitated by centrifugation at 13,000 xg for 10 min at 4 °C. Supernatants were precleared with protein A-Sepharose beads for 1 h. DMSO (vehicle) or different concentrations of the compounds (0.2, 0.6, 1, 5, 16 or 50 µM) were added to equal amounts of protein lysates for 30 min. Protein A-Sepharose beads and anti-IQGAP1 polyclonal antibodies were then added for 2 h at 4 °C. Anti-rabbit IgG antibodies were used as the immunoprecipitation control. Samples were washed five times with Buffer A, resolved by SDS-PAGE and transferred to polyvinylidene fluoride (PVDF) membranes (Millipore Corp). Membranes were probed with anti-IQGAP1 and anti-Cdc42 antibodies. After secondary antibody detection, Western blots were imaged using a LI-COR Odyssey infrared imaging system (LI-COR, USA). Western blot quantification and analysis was conducted using Image Studio™ Lite (LI-COR Biosciences).

[4] = system: active (GTP-bound) Cdc42 in MDA-MB-231 cells; assay: Assay of active Cdc42 (GST-WASP-GBD pulldown); type: cell-based, human; conditions: 50 µM for 2 h, 100 ng/mL EGF 10 min
Experimental: The GST-WASP-GBD (GTPase-binding-domain) has been described previously. Briefly, GST-WASP-GBD was generated by polymerase chain reaction, digested, and ligated into a pGEX-KG vector[52]. Following expression of the GST fusion protein in E. coli, purification was performed by glutathione-Sepharose affinity chromatography. MDA-MB-231 cells were grown in DMEM with 10% FBS to 60% confluence. After 2 h, 100 ng/mL EGF or vehicle was added for 10 min. After washing with 1xPBS, cells were lysed in lysis buffer (20 mM Hepes, pH 7.4, 150 mM NaCl, 1% NP-40, 20 mM NaF, and 20uM GTP, containing halt protease & phosphatase inhibitor cocktail (Thermo Scientific #1,861,281). Lysates were precleared with glutathione-Sepharose for 1 h at 4 °C and equal amounts of protein was incubated with either GST (control) or GST-WASP-GBD for 2 h at 4 °C. Complexes were collected with glutathione-Sepharose and washed 5× with lysis buffer. Bound proteins were resolved by SDS-PAGE and transferred to a polyvinylidene difluoride membrane. The membrane was cut immediately below the 37 kDa molecular weight marker. The top portion of the membrane was discarded and the bottom portion was probed with anti-Cdc42 antibody (BD Transduction Laboratories #610929). Aliquots of whole cell lysate were processed in parallel. […] The intensities of the Cdc42 and tubulin bands were quantified using Image Studio (LI-COR Biosciences).

T1 sequence (P08515 whole entry): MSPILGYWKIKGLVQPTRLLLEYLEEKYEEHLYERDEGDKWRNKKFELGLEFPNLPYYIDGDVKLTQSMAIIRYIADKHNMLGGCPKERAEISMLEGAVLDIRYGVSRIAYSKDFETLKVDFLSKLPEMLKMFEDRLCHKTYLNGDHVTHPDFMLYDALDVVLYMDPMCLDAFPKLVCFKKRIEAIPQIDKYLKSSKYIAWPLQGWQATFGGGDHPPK

| SMILES | activity in His-GST counter-screen (His-tagged GST) | T1/2 metabolic half-life [1] | Solubility (kinetic aqueous) [2] | reduction of interaction between endogenous IQGAP1 and Cdc42 (mean) ([3]; 16 µM (Fig. 3b)) | effect on EGF-induced active (GTP-) Cdc42 [4] | half-life [1] | solubility kinetic [2] | reduction of interaction between endogenous IQGAP1 and Cdc42 (mean) ([3]; 0.2 µM (Fig. 3b)) |
| --- | --- | --- | --- | --- | --- | --- | --- | --- |
| CCN(CC)CCn1c2ccccc2c2nc3ccc([N+](=O)[O-])cc3cc21 [MLS000332963] | inactive | 11.47 min | < 1 µg/mL |  |  |  |  |  |
| CCN1CCN(c2ncc3c(n2)CCN(Cc2cc(Br)cs2)C3)CC1 [NCGC00131308] |  |  |  | 60% | abrogated the increase in GTP-Cdc42 induced by EGF | 2.7 min | 37.1 µg/mL (≈ 88 µM) |  |
| CCc1ccccc1Nc1ncnc2c1cnn2-c1ccc(Cl)cc1 [NCGC00138812] |  |  |  |  | did not appreciably reduce activation of Cdc42 by EGF | 7.12 min | < 1 µg/mL | 47% |
| Cc1cccc(NC(=O)c2c(NC(=O)C(F)(F)F)sc3c2CCCCC3)c1 [NCGC00098561] | not active |  |  |  |  |  |  |  |

Reference: article PMC9576799, “Discovery of small molecule inhibitors that effectively disrupt IQGAP1-Cdc42 interaction in breast cancer cells” (Scientific Reports, 2022)
